Data published in patent US20240041830A1, “CIRCULATING BIOMARKERS OF RESPONSE TO PD-1/PD-L1 BLOCKADE AND GSK-3 INHIBITION” (Brown University, priority 2022, published 2024).

Tests used:
[1] = system: refractory solid tumors of multiple tissue origins; assay: Phase 1 clinical trial (NCT03678883), survival; type: in vivo, human
Description: Clinical specimens. Archival tumor specimens and peripheral blood samples were collected from patients enrolled in the Phase I study of elraglusib (Clinicaltrials.gov NCT03678883) who received treatment at the Lifespan Cancer Institute (Providence, RI, USA). The analysis was conducted in accordance with the Declaration of Helsinki and the International Conference on Harmonization Good Clinical
Patient plasma concentrations of cytokines from a Phase 1 clinical trial investigating elraglusib correlate with progression-free survival, overall survival, and in vivo response to therapy results. To determine the clinical relevance of the biomarkers of response identified in our murine model, the inventors next employed Luminex 200 technology to analyze plasma samples from patients with refractory solid tumors of multiple tissue origins enrolled in a Phase 1 clinical trial investigating elraglusib (NCT03678883).
TABLE 14 description. Individual patient information for human cytokine analysis. Tumor type, elraglusib dose (mg, mg/kg), number of cycles, age at enrollment, sex, race, ethnicity, median progression free survival and median overall survival data is shown (N=19).

MSS cell line CT-26 = assay: syngeneic murine colon carcinoma BALB/c model, survival and tumor response; type: in vivo, mouse
Description: In vivo studies. […] Once tumor volume reached at least 100 mm^3, mice were randomly assigned to one of seven groups (12 mice/group): Control (isotype), elraglusib, elraglusib+Isotype, anti-PD-1, anti-PD-L1, elraglusib+anti-PD-1, and elraglusib+anti-PD-L1. All treatments were delivered by IP injection using the following dosing schedule: Isotype (70 mg/kg, twice a week), elraglusib (70 mg/kg, twice a week), anti-PD-1 (10 mg/kg, twice a week), anti-PD-L1 (10 mg/kg, twice a week). Treatment dosing was determined based on previous studies of elraglusib and anti-PD-1/anti-PD-L1. […] The treatment continued until mice developed signs of discomfort from excessive tumor growth. Mice were weighed once a week to monitor signs of drug toxicity. The length (L) and width (W) of the masses were measured three times per week with a digital caliper, and the tumor volume was calculated by applying the formula: 0.5LW2 Collection of whole blood and serum was performed by cardiac puncture and sent to Antech Diagnostics GLP (Morrisville, NC, USA) for blood cell count and chemistry tests, or in-house cytokine profiling. Tumors and organs were dissected and harvested for analysis by immunohistochemistry and flow cytometry.
In a syngeneic murine colon carcinoma BALB/c model using microsatellite stable cell line CT-26, the inventors compared isotype, elraglusib (70 mg/kg 2×/week), αPD-1 (10 mg/kg 2×/week), αPD-L1 (10 mg/kg 2×/week), elraglusib+αPD-1, and elraglusib+αPD-L1 treatment groups.

[2] = toxicity monitoring in CT-26 BALB/c mice: body weight, serum chemistry, complete blood count; type: in vivo, mouse
Description: In vivo studies. The experimental in vivo protocol (Protocol #19-01-003) was approved by the Institutional Animal Care and Use Committee of Brown University (Providence, RI, USA). Six-week to seven-week-old female BALB/c mice (RRID: IMSR_JAX:000651) were purchased from Taconic. A total of 50,000 cells were suspended in 50 μL ice-cold PBS and 50 μL Matrigel (Catalog #354234, Corning, New York, NY, USA), and 100 μL was injected subcutaneously into the rear flanks. Once tumor volume reached at least 100 mm^3, mice were randomly assigned to one of seven groups (12 mice/group): Control (isotype), elraglusib, elraglusib+Isotype, anti-PD-1, anti-PD-L1, elraglusib+anti-PD-1, and elraglusib+anti-PD-L1. All treatments were delivered by IP injection using the following dosing schedule: Isotype (70 mg/kg, twice a week), elraglusib (70 mg/kg, twice a week), anti-PD-1 (10 mg/kg, twice a week), anti-PD-L1 (10 mg/kg, twice a week). Treatment dosing was determined based on previous studies of elraglusib and anti-PD-1/anti-PD-L1. Ugolkov et al., Anticancer Drugs, 29, 717-724 (2018); McClanahan et al., Blood, 126, 203-211 (2015); Bernardo et al., Oncoimmunology, 10, 1881268 (2021). The solvent for elraglusib was DMSO and the formulation buffer for elraglusib was made using 75% PEG400, 7% Tween 80, and 18% Ethanol. The treatment continued until mice developed signs of discomfort from excessive tumor growth. Mice were weighed once a week to monitor signs of drug toxicity. The length (L) and width (W) of the masses were measured three times per week with a digital caliper, and the tumor volume was calculated by applying the formula: 0.5LW2 Collection of whole blood and serum was performed by cardiac puncture and sent to Antech Diagnostics GLP (Morrisville, NC, USA) for blood cell count and chemistry tests, or in-house cytokine profiling. Tumors and organs were dissected and harvested for analysis by immunohistochemistry and flow cytometry.
The inventors evaluated the potential for elraglusib to increase the efficacy of immune checkpoint blockade and utilized a syngeneic murine colon carcinoma BALB/c murine model using a MSS cell line CT-26 (FIG. 4A). Mice were randomly assigned to one of seven groups: isotype (N=12), elraglusib (N=12), elraglusib+isotype (N=12), anti-PD-1 (N=12), anti-PD-L1 (N=12), elraglusib+anti-PD-1 (N=12), and elraglusib+ anti-PD-L1 (N=12). […] The inventors saw the most sustained response in the elraglusib and anti-PD-L1 combination therapy group.
TABLE 13 description. […] Whole blood from long-term mice sacrificed was submitted for serum chemistry analysis. Results are shown from the complete metabolic panel and complete blood count with differential. ALB: Albumin, ALP: Alkaline Phosphatase, ALT: Alanine aminotransferase, AMY: Amylase, ANIS: Anisocytosis, AST: Aspartate aminotransferase, ATYP: Atypical Lymphs, BAS: Absolute Basophils, BAS%: % Basophils, BUN: Urea Nitrogen, CA: Calcium, CHOL: Cholesterol, CL: Chloride, CPK: Creatine kinase, CPLT: Clumped Platelets, CREA: Creatinine, DBIL: Direct Bilirubin, EOS: Absolute Eosinophils, EOS% : % Eosinophils, GGT: Gamma-glutamyl Transferase, GLU: Glucose, HB: Hemoglobin, HCT: Hematocrit, HJB: Howell-Jolly Bodies, HYPO: Hypochromasia, HYPR: Hyperchromasia, K: Potassium, LDH: Lactate Dehydrogenase, LIP: Lipase, LPLT: Large Platelets, LUC: Absolute Large Unstained Cells, LUC%: % Large Unstained Cells, LYM: Absolute Lymphocytes, LYM%: % Lymphocytes, MAC: Macrocytosis, MCH: Mean Corpuscular Hemoglobin, MCHC: Mean Corpuscular Hemoglobin […], MCV: Mean Corpuscular Volume, MG: Magnesium, MIC: Microcytosis, MON: Absolute Monocytes, MON%: % Monocytes, NA: Sodium, NEU: Absolute Neutrophils, NEU%: % Neutrophils, PHOS: Inorganic Phosphorus, PLT: Platelet Count, POLK: Poikilocytosis, RBC: Red Blood Cell Count, TBIL: Total Bilirubin, TPRO: Total Protein, TRIG: Triglyceride, WBC: White Blood Cell Count.

[3] = N=19 patients, multiple tumor types
[4] = Subject 05003, Colorectal, 1 mg/kg
[5] = Subject 05005, Colorectal, 1 mg/kg, 2 cycles

Cn1cc(C2=C(c3coc4ccc(F)cc34)C(=O)NC2=O)c2cc3c(cc21)OCO3 [elraglusib]
median overall survival [1, 3]: 101 days
median progression-free survival [1, 3]: 75.9 days
OS [1, 4]: 26 days
PFS [1, 4]: 26 days
PFS ([1]; Subject 05004, Colorectal, 1 mg/kg): 28 days
OS [1, 5]: 105 days
PFS [1, 5]: 99 days
OS ([1]; Subject 05006, HCC, 2 mg/kg): 234 days
PFS ([1]; Subject 05006, HCC, 2 mg/kg): 234 days
PFS ([1]; Subject 05009, Cholangiocarcinoma, 2 mg/kg): 46 days
OS ([1]; Subject 05011, NSCLC, 2 mg/kg): 39 days
PFS ([1]; Subject 05011, NSCLC, 2 mg/kg): 31 days
PFS ([1]; Subject 05013, Colorectal, 3.3 mg/kg): 130 days
PFS ([1]; Subject 05017, Colorectal, 5 mg/kg): 83 days
PFS ([1]; Subject 05018, NSCLC, 5 mg/kg): 41 days
PFS ([1]; Subject 05024, Appendix, 7 mg/kg): 41 days
survival compared to the control (MSS cell line CT-26; N=12 per group): statistically significant improved survival
hazard ratio for death (HR) (MSS cell line CT-26; compared to isotype control group): 0.12
median overall survival (MSS cell line CT-26; elraglusib 70 mg/kg 2×/week, αPD-1/αPD-L1 10 mg/kg 2×/week, isotype control group 16 d): 19 days
ALB (Albumin) ([2]; long-term mice sacrificed): 2.7 g/dL
ALP (Alkaline Phosphatase) ([2]; long-term mice sacrificed): 4 U/L
ALT (Alanine aminotransferase) ([2]; long-term mice sacrificed): 26 U/L
AMY (Amylase) ([2]; long-term mice sacrificed): 275 U/L
AST (Aspartate aminotransferase) ([2]; long-term mice sacrificed): 198 U/L
BUN (Urea Nitrogen) ([2]; long-term mice sacrificed): 27 mg/dL
CHOL (Cholesterol) ([2]; long-term mice sacrificed): 101 mg/dL
CL (Chloride) ([2]; long-term mice sacrificed): 111 mmol/L
CPK (Creatine kinase) ([2]; long-term mice sacrificed): 1968 U/L
CREA (Creatinine) ([2]; long-term mice sacrificed): 0.2 mg/dL
DBIL (Direct Bilirubin) ([2]; long-term mice sacrificed): 0 mg/dL
GGT (Gamma-glutamyl Transferase) ([2]; long-term mice sacrificed): 0 U/L
GLU (Glucose) ([2]; long-term mice sacrificed): 230 mg/dL
K (Potassium) ([2]; long-term mice sacrificed): >10.0 mmol/L
LDH (Lactate Dehydrogenase) ([2]; long-term mice sacrificed): 2230 U/L
LIP (Lipase) ([2]; long-term mice sacrificed): 59 U/L
MG (Magnesium) ([2]; long-term mice sacrificed): 1.2 mg/dL
NA (Sodium) ([2]; long-term mice sacrificed): 146 mmol/L
PHOS (Inorganic Phosphorus) ([2]; long-term mice sacrificed): 8.2 mg/dL
TBIL (Total Bilirubin) ([2]; long-term mice sacrificed): 0.5 mg/dL
TPRO (Total Protein) ([2]; long-term mice sacrificed): 4.5 g/dL
TRIG (Triglyceride) ([2]; long-term mice sacrificed): 136 mg/dL
renal function (BUN and creatinine) ([2]; mouse, in vivo): maintained normal renal function
